These are literature values, as cited in patent EP0112266B1, “Substituted tropyl and pseudotropyl benzoates and their use in migraine treatment” (MERRELL DOW FRANCE ET CIE, priority 1982, dated 1984).

By pA2 is commonly meant the negative logarithm of the molar antagonist concentration that doubles the agonist concentration needed for the same response.

The target in series [1] is T1, 5-HT M-receptor (Oryctolagus cuniculus, UniProt G1TUQ4).
T1 sequence (G1TUQ4 24-513): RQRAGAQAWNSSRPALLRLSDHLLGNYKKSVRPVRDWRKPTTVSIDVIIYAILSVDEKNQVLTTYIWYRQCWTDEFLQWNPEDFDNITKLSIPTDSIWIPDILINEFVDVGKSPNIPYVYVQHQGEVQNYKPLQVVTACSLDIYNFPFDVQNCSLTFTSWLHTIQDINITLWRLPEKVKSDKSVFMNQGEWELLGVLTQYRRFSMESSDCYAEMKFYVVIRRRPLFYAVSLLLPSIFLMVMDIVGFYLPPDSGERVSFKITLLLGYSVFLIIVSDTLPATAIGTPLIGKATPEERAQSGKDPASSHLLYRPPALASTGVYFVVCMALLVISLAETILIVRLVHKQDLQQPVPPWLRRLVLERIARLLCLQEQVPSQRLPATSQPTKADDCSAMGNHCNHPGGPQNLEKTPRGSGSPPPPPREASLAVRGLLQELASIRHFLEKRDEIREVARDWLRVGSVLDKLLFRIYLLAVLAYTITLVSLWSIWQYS
Conditions: potency as 5-HT M-receptor antagonist; literature values (Fozard et al, Eur. J. Pharmacol. 1978/1979).

The conditions of series [2]: slow intravenous injection, 10 mg.
For series [3], the system named is isolated guinea pig ileum. The conditions noted are these: stated in Schultz et al, 1972.

Consider `CN1[C@@H]2CC[C@H]1C[C@@H](OC(=O)c1ccccc1)C2` [benzoyl tropine], for which the pA2 in series [1] is on record as 7.2.

`CCN(CC)CCNC(=O)c1cc(Cl)c(N)cc1OC` [metoclopramide]: the “relief of acute migraine attack” value in series [2] is “immediate relief”. In the case of `CN1[C@@H]2CC[C@H]1C[C@@H](OC(=O)c1ccccc1Cl)C2` [tropyl 2-chlorobenzoate], the spasmolytic- inducing activity entry in series [3] is recorded as “spasmolytic- inducing activity”.
